Data on 1 molecule can be found in patent US20210262008A1, “METHOD OF PERSONALIZED TREATMENT FOR CARDIOMYOPATHY AND HEART FAILURE AND OTHER RELATED DISEASES BY MEASURING RENIN ACTIVITY, PRO-RENIN, PRO-RENIN RECEPTOR LEVELS IN BLOOD” (priority 2018, published 2021).

Like-named read-outs stand apart in the source and are kept apart here.

Data set [1] deals with female mice with dilated cardiomyopathy (DCM). Description: Plasma Ang II, aldosterone and HF biomarkers by enzyme immunoassay in DCM mice at 90 days. It is filed as in vivo, mouse. The note with it: for plasma aldosterone levels: 100 mg/kg/day oral, 100 mg/kg/day. An excerpt:
Mice: In the Examples 1-3 below, the mice used were all female littermates with or without dilated cardiomyopathy (DCM) on a C57BL/6 background. DCM is a major cause of HF, which is associated with pathological dilation of the heart ventricles and declines in heart contractile or systolic function. DCM mice express transgene dominant negative CREB transcription factor, specific to cardiomyocytes and develop a consistent progressive DCM and HF similar to humans. In female mice with DCM renal function remains within normal range up to the terminal HF stage, as measured by plasma BUN and creatinine. DCM mice (mCREBTg) are slightly hypotensive at 91 days of age compared to mCREB WT. mCREB mice were randomly assigned to experimental groups. Groups were denoted as WT (n=20), DCM (Control, n=28), and DCM+direct renin inhibitor treatment (+DRI, n=29). At 90-day censorship, dissected organs were weighed, and terminal blood was collected via cardiocentesis with EDTA-aprotinin syringes to prevent proteolysis of targeted proteins. The blood samples were centrifuged at 3000 rpm for 20 min at 4° C. Plasma samples were aliquoted and stored at −80° C. until analysis.
(§1) Dose calculations were based on an average consumption of 5 mL of water/day/mouse. […] The oral dose was chosen to closely mimic the human route of delivery, while not altering the blood pressure, associated with elevated plasma Ang II-aldosterone levels, given the low bioavailability of the drug in rodents. […] No issues with palatability or clinical dehydration were noted throughout the study as assessed by blinded husbandry and veterinary staff. […] The administration was started at 50 days of age to coincide with the previously identified timeline of increased renin activity and development of stage B HF in female DCM mice]. Aliskiren water was provided ad libitum throughout life. All untreated mice (WT and DCM+vehicle) received ad lib 3 ppm hyperchlorinated facility water via an automated watering system (Edstrom, Waterford, Wis., USA).
Enzyme Immunoassay: Plasma Ang II, aldosterone, atrial natriuretic peptide (N terminus-ANP), cyclic guanosine monophosphate (cGMP), neprilysin, and corin levels were measured by enzyme immunoassays according to the manufacturers' protocols (Phoenix Pharm. Inc., Burlingame, Calif., USA; Abcam Inc., Cambridge, Mass., USA; Enzo Life Sciences Inc., Farmingdale, N.Y., USA; Boster Biological Technology, Pleasanton, Calif., USA; USCN Life Science Inc., Houston, Tex., USA).

For data set [2] the following is noted: orally in rats; cited from earlier work.
In data set [3] the test system is female mice with dilated cardiomyopathy (DCM). Description: Kaplan-Meier survival of female DCM mice. It is filed as in vivo, mouse. From the text:
Mice: In the Examples 1-3 below, the mice used were all female littermates with or without dilated cardiomyopathy (DCM) on a C57BL/6 background. DCM is a major cause of HF, which is associated with pathological dilation of the heart ventricles and declines in heart contractile or systolic function. DCM mice express transgene dominant negative CREB transcription factor, specific to cardiomyocytes and develop a consistent progressive DCM and HF similar to humans. In female mice with DCM renal function remains within normal range up to the terminal HF stage, as measured by plasma BUN and creatinine. DCM mice (mCREBTg) are slightly hypotensive at 91 days of age compared to mCREB WT. mCREB mice were randomly assigned to experimental groups. […]
Dose calculations were based on an average consumption of 5 mL of water/day/mouse. […] No issues with palatability or clinical dehydration were noted throughout the study as assessed by blinded husbandry and veterinary staff. […]
Statistical Analysis: Statistical analyses were performed with GraphPad Prism 7.04 software (GraphPad Software, La Jolla, Calif., USA) using Student's t-test, one-way ANOVA, or two-way ANOVA with Tukey's multiple comparisons test (unless otherwise indicated) and Pearson's correlation. Survival was analyzed using Kaplan-Meier curves with the Mantel-Cox test. […]

For data set [4] the test system is unchanged. Description: Echocardiography of DCM mice at 90 days of age. In kind it is in vivo, mouse.
The conditions of data set [5]: in humans; cited from earlier work.
For data set [6], the target named is T1, mouse renin (Mus musculus, UniProt P06281).
T1 construct: from tissue; host or cells: plasma (terminal blood, cardiocentesis) of female DCM (mCREB transgenic) mice on a C57BL/6 background
T1 sequence (P06281 72-402): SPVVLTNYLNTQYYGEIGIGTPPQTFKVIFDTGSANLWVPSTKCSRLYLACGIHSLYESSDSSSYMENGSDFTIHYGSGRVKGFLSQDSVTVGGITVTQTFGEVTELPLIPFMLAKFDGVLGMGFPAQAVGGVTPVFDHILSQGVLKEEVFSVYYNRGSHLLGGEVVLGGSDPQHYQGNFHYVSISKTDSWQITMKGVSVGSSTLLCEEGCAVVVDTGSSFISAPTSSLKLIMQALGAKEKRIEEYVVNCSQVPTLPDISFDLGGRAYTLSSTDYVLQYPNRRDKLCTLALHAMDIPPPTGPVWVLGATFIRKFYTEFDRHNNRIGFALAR
Briefly: Plasma renin activity assay (FRET substrate) in plasma of treated DCM mice. The note with it: female DCM mice, 100 mg/kg/day orally in drinking water from 50 days of age, measured at 90 days, vs DCM control. In kind it is in vivo. The procedure: Plasma samples were aliquoted and stored at −80° C. until analysis.

Data set [7] concerns mice. The conditions noted are these: mouse, in vivo. The method, then:
as §1

For data set [8], the system named is blood pressure. The conditions noted are these: 15-50 mg/kg/day via subcutaneous osmotic pumps, previous studies; cited from earlier work.

For `COCCCOc1cc(C[C@@H](C[C@H](N)[C@@H](O)C[C@H](C(=O)NCC(C)(C)C(N)=O)C(C)C)C(C)C)ccc1OC` [aliskiren, aliskiren hemifumarate], the “plasma Ang II levels” value in data set [1] (female DCM mice, 100 mg/kg, DCM+DRI vs DCM+vehicle) was “no significant difference”. For the same molecule, the plasma aldosterone levels result in data set [1] (female DCM mice, vs DCM control) was “not modulated by treatment”; in data set [1] (female DCM mice, vs DCM control, listed as DRI-aliskiren) it was “no significant difference”. The ANP plasma levels result in data set [1] (vs DCM control) is reported as “not affected”. The corin plasma levels result in data set [1] (vs DCM control) is listed as “not affected”. The “plasma cGMP levels” value in data set [1] (vs DCM control) is “non-significant trend toward lower levels”. Moreover, the plasma neprilysin levels result is listed as “normalized plasma neprilysin levels” in data set [1] (vs DCM control, P<0.001, listed as DRI) and “lowered neprilysin to WT levels” in data set [1] (vs DCM control, P<0.001, listed as DRI-aliskiren). Besides, the bioavailability is 2.6% in data set [2] and “low” in data set [5]. Besides, the median survival in data set [3] (100 mg/kg/day oral, control 103 days, P<0.05) is on record as 110 days. Besides, the “outlived the control mice (survival gain)” value in data set [3] (median survival vs control) was 7%. In addition, the heart rate in data set [4] (anesthetized, control 419±10 bpm, P<0.01) was found to be 469±14 bpm. Moreover, the “cardiac output (CO mL/min)” value in data set [4] (vs control DCM mice, P<0.01) was “improved”. Moreover, in data set [4] (vs control DCM mice, P<0.05), the “systolic function, ejection fraction (EF %)” value was “improved”. In addition, the “systolic function, fractional shortening (FS %)” value in data set [4] (vs control DCM mice, P<0.05) was “improved”. The “plasma renin activity (PRA)” value is given as “significantly reduced elevated PRA to normal levels” in data set [6] and “normalized pathological renin activity” in data set [6] (listed as DRI-aliskiren). Besides, the “palatability or clinical dehydration” value in data set [7] is reported as “No issues”. The “side effects / abnormal clinical observations” value in data set [7] (100 mg/kg/day) is given as “no side effects or abnormal clinical observations”. Besides, the blood pressure entry in data set [8] is given as “no alteration in blood pressure”.
